Key:
[1] = Formaldehyde removing ability test (GC); settings: 2.0% formaldehyde solution, 3 molar equivalents, room temperature
[2] = tested on: human skin; assay: Skin irritation test of active ingredient (patch method, CTFA guidelines); assay type: in vivo; settings: for Test result (number of subject) (+) / Test result (number of subject) (−) / Test result (number of subject) (++) / Test result (number of subject) (±): 20 subjects, 24 hours patch; for Test result (number of subject) (+): apparent reddening; for Test result (number of subject) (−): no erythema or symptoms; for Test result (number of subject) (++): reddened and swollen; for Test result (number of subject) (±): slightly reddish; for Degree of irritation: Equation 1
Description: A total of 20 people (10 men and 10 women in their 20s and 30s) were tested for skin irritation using the patch method according to the guidelines of CTFA (The Cosmetic, Toiletry & Fragrance Association, Inc. Washington, D.C.).
A filter paper disk was placed in an 8 mm diameter, 10 panels of pin chamber.
After 24 hours, the pin chamber was removed, and skin conditions were visually observed. The degree and grade for skin irritation were calculated according to the following Equation 1, and the results are shown in Table 3 below.
[Criteria for Skin Irritation]
(−): No erythema or particularly no symptoms; (±): slightly reddish than the periphery; (+): Apparent reddening than periphery; (++): More reddened and swollen than periphery.
[Grade for Skin Irritation]
Degree of irritation 0-0.1: Grade I (unstimulated);
Degree of irritation 0.11-0.3: Grade II (weakly stimulated);
Degree of irritation 0.31-0.5: Grade III (moderately stimulated);
Degree of irritation 0.51 or more: Grade IV (strongly stimulated)

| Compound | Area (formaldehyde, GC) ([1]; 30 min) [mAU * min] | Area (formaldehyde, GC) ([1]; 180 min) [mAU * min] | Area (formaldehyde, GC) ([1]; Initial) [mAU * min] | Grade ([2]; content 0.1%) | Test result (number of subject) (+) ([2]; content 0.1%) | Test result (number of subject) (−) ([2]; content 0.1%) | Test result (number of subject) (++) ([2]; content 0.1%) | Test result (number of subject) (±) ([2]; content 0.1%) | Degree of irritation ([2]; content 0.1%) | Grade ([2]; content 0.5%) | Test result (number of subject) (+) ([2]; content 0.5%) | Test result (number of subject) (−) ([2]; content 0.5%) | Test result (number of subject) (++) ([2]; content 0.5%) | Test result (number of subject) (±) ([2]; content 0.5%) | Degree of irritation ([2]; content 0.5%) | Grade ([2]; content 1.0%) | Test result (number of subject) (+) ([2]; content 1.0%) | Test result (number of subject) (−) ([2]; content 1.0%) | Test result (number of subject) (++) ([2]; content 1.0%) | Test result (number of subject) (±) ([2]; content 1.0%) | also measured |
| --- | --- | --- | --- | --- | --- | --- | --- | --- | --- | --- | --- | --- | --- | --- | --- | --- | --- | --- | --- | --- | --- |
| O=C(O)c1cncc(N2CCN(c3cncc(C(=O)O)c3)CCN(c3cncc(C(=O)O)c3)CCN(c3cncc(C(=O)O)c3)CC2)c1 [Embodiment 7, 5,5′,5″,5′″-(1,4,7,10-tetraazacyclododecane-1,4,7,10-tetrayl)tetranicotinic Acid] | 0.181 | 0 | 0.305 | I (Degree of irritation 0-0.1: Grade I (unstimulated)) | 0 | 20 | 0 | 0 | 0 | I (Degree of irritation 0-0.1: Grade I (unstimulated)) | 0 | 20 | 0 | 0 | 0 | I (Degree of irritation 0-0.1: Grade I (unstimulated)) | 0 | 20 | 0 | 0 | Degree of irritation ([2]; content 1.0%): 0 |
| O=C(O)c1ccc(N2CCN(c3ccc(C(=O)O)o3)CCN(c3ccc(C(=O)O)o3)CCN(c3ccc(C(=O)O)o3)CC2)o1 [Embodiment 8, 5,5′,5″,5′″-(1,4,7,10-tetraazacyclododecane-1,4,7,10-tetrayl)tetrakis(furan-2-carboxylic Acid)] | 0.168 | 0 | 0.305 | I (Degree of irritation 0-0.1: Grade I (unstimulated)) | 0 | 20 | 0 | 0 | 0 | I (Degree of irritation 0-0.1: Grade I (unstimulated)) | 0 | 20 | 0 | 0 | 0 | I (Degree of irritation 0-0.1: Grade I (unstimulated)) | 0 | 18 | 0 | 2 | Degree of irritation ([2]; content 1.0%): 0.10 |
| O=C(O)CN1CCCN(CC(=O)O)CCN(CC(=O)O)CCCN(CC(=O)O)CC1 [Embodiment 9, 2,2′,2″,2′″-(1,4,8,11-tetraazacyclotetradecane-1,4,8,11-tetrayl)tetraacetic Acid] | 0.182 | 0 | 0.305 | I (Degree of irritation 0-0.1: Grade I (unstimulated)) | 0 | 20 | 0 | 0 | 0 | I (Degree of irritation 0-0.1: Grade I (unstimulated)) | 0 | 20 | 0 | 0 | 0 | I (Degree of irritation 0-0.1: Grade I (unstimulated)) | 0 | 18 | 0 | 2 | Degree of irritation ([2]; content 1.0%): 0.10 |
| O=C(O)c1ccc(N2CCCN(c3ccc(C(=O)O)cc3)CCN(c3ccc(C(=O)O)cc3)CCCN(c3ccc(C(=O)O)cc3)CC2)cc1 [Embodiment 10, 4,4′,4″,4′-(1,4,8,11-tetraazacyclotetradecane-1,4,8,11-tetrayl)tetrabenzoic Acid] | 0.171 | 0 | 0.305 | I (Degree of irritation 0-0.1: Grade I (unstimulated)) | 0 | 20 | 0 | 0 | 0 | I (Degree of irritation 0-0.1: Grade I (unstimulated)) | 0 | 20 | 0 | 0 | 0 | I (Degree of irritation 0-0.1: Grade I (unstimulated)) | 0 | 19 | 0 | 1 | Degree of irritation ([2]; content 1.0%): 0.05 |
| O=C(O)c1cncc(N2CCCN(c3cncc(C(=O)O)c3)CCN(c3cncc(C(=O)O)c3)CCCN(c3cncc(C(=O)O)c3)CC2)c1 [Embodiment 11, 5,5′,5″,5′″-(1,4,8,11-tetraazacyclotetradecane-1,4,8,11-tetrayl)tetranicotinic Acid] | 0.174 | 0 | 0.305 | I (Degree of irritation 0-0.1: Grade I (unstimulated)) | 0 | 20 | 0 | 0 | 0 | I (Degree of irritation 0-0.1: Grade I (unstimulated)) | 0 | 20 | 0 | 0 | 0 | I (Degree of irritation 0-0.1: Grade I (unstimulated)) | 0 | 18 | 0 | 2 | Degree of irritation ([2]; content 1.0%): 0.10 |
| O=C(O)c1ccc(N2CCCN(c3ccc(C(=O)O)o3)CCN(c3ccc(C(=O)O)o3)CCCN(c3ccc(C(=O)O)o3)CC2)o1 [Embodiment 12, 5,5′,5″,5′″-(1,4,8,11-tetraazacyclotetradecane-1,4,8,1-tetrayl)tetrakis(furan-2-carboxylic Acid)] | 0.170 | 0 | 0.305 | I (Degree of irritation 0-0.1: Grade I (unstimulated)) | 0 | 20 | 0 | 0 | 0 | I (Degree of irritation 0-0.1: Grade I (unstimulated)) | 0 | 20 | 0 | 0 | 0 | I (Degree of irritation 0-0.1: Grade I (unstimulated)) | 0 | 19 | 0 | 1 | Degree of irritation ([2]; content 1.0%): 0.05 |
| NCCNCCNCCN [Trientine, Triethylenetetramine, reference compound] | 0.168 | 0 | 0.305 | I (Degree of irritation 0-0.1: Grade I (unstimulated)) | 0 | 20 | 0 | 0 | 0 | I (Degree of irritation 0-0.1: Grade I (unstimulated)) | 0 | 19 | 0 | 1 | 0.05 | II (Degree of irritation 0.11-0.3: Grade II (weakly stimulated)) | 0 | 17 | 0 | 3 | Degree of irritation ([2]; content 1.0%): 0.15 |

From patent US11274268B2, “Detergent compositions for removing heavy metals and formaldehyde” (FNG RESEARCH CO., LTD., priority 2017, dated 2022)
